# Measured values published in patent US8258182B2, “Substituted 1,3-diphenylpropane derivatives, preparations and uses thereof” (Genfit, priority 2006, dated 2012).
# Assays:
# [1] = system: PPARs target genes (PDK4, ApoCIII, ACO) in the hepatic tissue; test: Hepatic expression of PPAR target genes in E2/E2 mice (quantitative RT-PCR); type: in vivo, mouse; settings: 50 mpk
# Description: The effectiveness of the compounds according to the invention is also evaluated by measuring, in the hepatic tissue, the expression of genes involved in lipid and/or glucids metabolism and in energy dissipation. Each level of genes expression is normalised regarding the expression level of the reference gene 36B4's. The induction factor, i.e. the ratio between the relative signal (induced by the compound according to the invention) and the average of the relative values relating to the control group is then calculated. The higher the induction factor is, the more the compound promotes hepatic gene expression. The final result is expressed as an average of the induction values obtained with each experimental group.
# The PPARα agonist properties previously measured in vitro should, in the liver, lead to an overexpression of the target genes directly under the control of the PPARα: the genes we have studied in this experiment are PDK-4 (an enzyme involved in glucid metabolism), Apo CIII (an apolipoprotein involved in lipid metabolism), and Acox1 (in mice, Acox1 corresponds to the ACO gene in humans (Acyl Co-enzymeA Oxydase, an enzyme key to the fatty acid β-oxidation mechanism)). Measuring the transcriptional activity of PPARα target genes after a treatment with compounds according to the invention does therefore allow to evaluate the hypolipidemic properties of the compounds according to the invention.
# The ApoE2/E2 transgenic mice were kept on a 12 hour/12 hour light/dark cycle at a constant temperature of 20±3° C. After a one week acclimatization period, the mice were weighed and divided into groups of 6 animals selected so as to render uniform the distribution of their body weights and plasma lipid rates, determined before the experiment. The tested compounds were suspended in carboxymethylcellulose (Sigma C4888) and administered by intra-gastric tube feeding once a day for 8 days (for compound 1) or 14 days (for compound 8) with the chosen doses. The animals had free access to food and water (standard diet). Taking of food and weight gain are recorded throughout the experiment. At the end of the experiment, the animals were anesthetized after a 4 hour fast, and a blood sample was taken using (EDTA) anticoagulant, then the mice were weighed and euthanized. The plasma was separated by centrifugation at 3000 rotations/minute for 20 minutes. The samples were kept at +4° C.
# Liver samples were removed, frozen in liquid nitrogen, and kept at −80° C. for later analyses.
# Total RNA is extracted from liver fragments by using the NucleoSpin® 96 RNA kit (Macherey Nagel, Hoerdt, France) according to the manufacturer's instructions.
# 1 μg of total RNA (quantified by using the Ribogreen RNA quantification kit (Molecular Probes)) is then reverse-transcripted into complementary DNA by means of a 1 hour reaction at 37° C. in a total volume of 20 μl containing a 1× buffer (Sigma), 1.5 mM of DTT, 0.18 mM of dNTPs (Promega), 200 ng of pdN6 (Amersham), 30U of RNase inhibitor (Sigma), and 1 μl of MMLV-RT (Sigma).
# The PCR quantitative experiments were carried out using the MyiQ Single-Color Real-Time PCR Detection System (Biorad, Marnes-la-Coquette, France) and were performed using the iQ SYBR Green Supermix kit according to the manufacturer's recommendations, in 96-well trays in 5 μl of a diluted reverse transcription solution at a hybridation temperature of 55° C. The specific primer pairs of the genes studied were used: • PDK4: sense primer: 5′-[…]-3′ (SEQ ID NO: 1) and antisense primer 5′-[…]-3′ (SEQ ID NO: 2)) • ApoCIII: sense primer: 5′-[…]-3′ (SEQ ID NO: 3) and antisense primer 5′-[…]-3′ (SEQ ID NO: 4). • ACO: sense primer: 5′-[…]-3′ (SEQ ID NO: 5) and antisense primer: 5′-[…]-3′ (SEQ ID NO: 6)
# The quantity of fluorescencet emitted is directly proportional to the quantity of cDNA present at the beginning of the reaction and amplified during the PCR. […]
# ApoE2/E2 mice = test: Plasma lipids in dyslipidemic ApoE2/E2 mice after per os treatment; type: in vivo, mouse; settings: 50 mpk per os, 8 days
# Description: The dyslipidemic E2/E2 mouse's rates of total cholesterol, of triglycerides, and plasma free fatty acids are measured after 8 or 14 days of a per os treatment with the compounds according to the invention.
# The hypolipidemic properties of the compounds according to the invention are evaluated in vivo by assaying plasma lipids and the analysis of the PPARs target genes expression in the liver after a treatment treating of the dyslipidemic E2/E2 mice with the compounds according to the invention.
# The murine model used is the ApoE2/E2 mouse, a transgenic mouse having the human apolipoprotein E isoform E2 (Sullivan P M et al., 1998). In human, this apolipoprotein, a constituent of low and very low density lipoproteins (LDL-VLDL), is present in three isoforms E2, E3, and E4. The E2 form presents a mutation affecting the amino acid in position 158, which considerably weakens the affinity of this protein for LDL receptors. Accordingly, the VLDL clearance is nearly non-existent. An accumulation of low-density lipoproteins then occurs along with a mixed hyperlipidemia known as type III (elevated cholesterol and triglycerides).
# The ApoE2/E2 transgenic mice were kept on a 12 hour/12 hour light/dark cycle at a constant temperature of 20±3° C. After a one week acclimatization period, the mice were weighed and divided into groups of 6 animals selected so as to render uniform the distribution of their body weights and plasma lipid rates, determined before the experiment. The tested compounds were suspended in carboxymethylcellulose (Sigma C4888) and administered by intra-gastric tube feeding once a day for 8 days (for compound 1) or 14 days (for compound 8) with the chosen doses. […] Taking of food and weight gain are recorded throughout the experiment. […]
# Plasma lipid concentrations (total cholesterol and triglycerides) are measured by enzymatic doses (bioMérieux-Lyon-France) according to the provider's recommendations.
# Plasma cholesterol and triglycerides rates are measured after 8 or 14 days of a per os treatment with the compounds according to the invention. […]
compound,measurement,setting,value
"CSc1ccc(C(=O)CCc2cc(C)c(OC(C)(C)C(=O)O)c(C)c2)cc1 [Compound 1, 2-[2,6-dimethyl-4-[3-[4-(methylthio)phenyl]-3-oxo-propyl]phenoxyl]-2-methylpropanoic acid]",hepatic expression of the gene coding for PDK4,[1]; 8 days (FIG. 2-4),significant increase
same,hepatic expression of the gene coding for ApoCIII,[1]; 8 days (FIG. 2-5),reduction
same,hepatic expression of genes coding for ACO,[1]; 8 days (FIG. 2-6),significant augmentation
same,plasma total cholesterol rates,ApoE2/E2 mice; vs control animals (FIG. 2-1),very significantly decreased
same,circulating triglycerides rates,ApoE2/E2 mice; vs control animals (FIG. 2-2),very significantly decreased
